Source: patent publication US11149033B2, “Heteroaryl compound, enantiomer, diastereomer or pharmaceutically acceptable salt thereof, and antiviral composition containing same as active ingredient” (priority 2016, dated 2021)

Tests used:
B/Florida/04/2006 = assay: Antiviral activity (drug efficacy evaluation by concentration) against B/Florida/04/2006; assay type: cell-based, B type influenza virus
[1] = system: A/California/07/2009 (H1N1); assay: Antiviral activity (drug efficacy evaluation by concentration) against A/California/07/2009 (H1N1); assay type: cell-based, A type influenza virus; details: Influenza A virus, H1N1; read-out: EC50
A/Perth/16/2009 (H3N2) = assay: Antiviral activity (drug efficacy evaluation by concentration) against A/Perth/16/2009 (H3N2); assay type: cell-based, A type influenza virus; details: Influenza A virus, H3N2; read-out: EC50
[2] = CC50, third EC50/CC50 column pair (c7), beside the EC50 of c6

| Compound | EC50 (B/Florida/04/2006) [µM] | EC50 [1] [µM] | EC50 (A/Perth/16/2009 (H3N2)) [µM] | melting point [°C] | CC50 (in vitro; CC50, beside the EC50 of c2) [µM] | CC50 (in vitro; CC50, beside the EC50 of c4) [µM] | CC50 (in vitro; [2]) [µM] |
| --- | --- | --- | --- | --- | --- | --- | --- |
| CC(C)c1ccccc1/C=C/c1nnc(Cc2cccc3ccccc23)o1 [Compound 132, 2-(2-isopropylstyryl)-5-(naphthalen-1-ylmethyl)-1,3,4-oxadiazole] | 1.58 | 1.52 | 1.14 | 148.1 | 10.8 | 12.2 | 13.6 |
| CC(C)c1cccc(/C=C/c2nnc(Cc3ccc(Br)cc3)o2)c1 [Compound 151, 2-(4-bromobenzyl)-5-(3-isopropylstyryl)-1,3,4-oxadiazole] | 6.39 | 21.3 | 6.38 | 61.8 | > 50 | > 50 | > 50 |
| Fc1ccc(/C=C/c2nnc(Cc3ccccc3)o2)c(Cl)c1 [Compound 158, (E)-2-benzyl-5-(2-chloro-4-fluorostyryl)-1,3,4-oxadiazole] | > 50 | > 50 | > 50 | 125.9 | > 50 | > 50 | > 50 |
| Clc1cc2c(cc1/C=C/c1nnc(Cc3ccc(Br)cc3)o1)OCO2 [Compound 162, 2-(4-bromobenzyl)-5-(2-(6-chlorobenzo[d][1,3]dioxol-5-yl)vinyl)-1,3,4-oxadiazole] | > 50 | 30.5 | > 50 | 186.2 | > 50 | > 50 | > 50 |
| Brc1ccc(Cc2nnc(/C=C/c3ccccc3)o2)cc1 [Compound 165, 2-(4-bromobenzyl)-5-styryl-1,3,4-oxadiazole] | 2.84 | 1.95 | 3.76 | 110.6 | 12.6 | 13.5 | 10.1 |
| CC(C)c1ccccc1/C=C/c1nnc(Cc2ccc(Br)cc2F)o1 [Compound 169, 2-(4-bromo-2-fluorobenzyl)-5-(2-isopropylstyryl)-1,3,4-oxadiazole] | 3.08 | 2.13 | 2.22 | 71.9 | 20.3 | > 50 | 37.2 |
| Cc1ccccc1/C=C/c1nnc(Cc2ccc(Br)cc2)o1 [Compound 170, 2-(4-bromobenzyl)-5-(2-methylstyryl)-1,3,4-oxadiazole] | 2.05 | 2 | 2.04 | 108.5 | 8.53 | 6.63 | 9.08 |
| Clc1ccc(/C=C/c2nnc(Cc3ccc(Br)cc3)o2)cc1 [Compound 171, 2-(4-bromobenzyl)-5-(4-chlorostyryl)-1,3,4-oxadiazole] | 4.3 | 3.74 | 3.63 | 129 | > 50 | 49.5 | 36.2 |
| Brc1ccc(Cc2noc(/C=C/c3ccccc3)n2)cc1 [Compound 174, (E)-3-(4-bromobenzyl)-5-styryl-1,2,4-oxadiazole] | 1.45 | 3.78 | 1.54 | 86.7 | 6.53 | 5.46 | 6.3 |
| Cc1ccc(F)c(Cc2nnc(/C=C/c3ccc(F)cc3Cl)o2)c1 [Compound 177, (E)-2-(2-chloro-4-fluorostyryl)-5-(2-fluoro-5-methylbenzyl)-1,3,4-oxadiazole] | 1.07 | 0.835 | 0.753 | 136.9 | > 50 | > 50 | > 50 |
| Fc1ccc(/C=C/c2nnc(Cc3cccc(Br)c3)o2)c(Cl)c1 [Compound 178, (E)-2-(3-bromobenzyl)-5-(2-chloro-4-fluorostyryl)-1,3,4-oxadiazole] | 0.95 | 0.99 | 0.75 | 121.7 | > 50 | > 50 | > 50 |
| Fc1ccc(/C=C/c2nnc(Cc3ccc(Cl)nc3)o2)c(Cl)c1 [Compound 180, (E)-2-(2-chloro-4-fluorostyryl)-5-((6-chloropyridin-3-yl)methyl)-1,3,4-oxadiazole] | 0.98 | 1.05 | 0.51 | 163 | > 50 | > 50 | > 50 |
| Cc1ccc(Cc2nnc(/C=C/c3ccc(F)cc3Cl)o2)cc1Br [Compound 181, (E)-2-(3-bromo-4-methylbenzyl)-5-(2-chloro-4-fluorostyryl)-1,3,4-oxadiazole] | 8.29 | 10.9 | 5.56 | 139 | > 50 | > 50 | > 50 |
| CC(C)c1cccc(Cc2nnc(/C=C/c3ccc(F)cc3Cl)o2)c1 [Compound 182, (E)-2-(2-chloro-4-fluorostyryl)-5-(3-isopropylbenzyl)-1,3,4-oxadiazole] | 0.549 | 0.617 | 0.373 | 117.3 | > 50 | > 50 | > 50 |
| Brc1ccc(Cc2nc(/C=C/c3ccccc3)no2)cc1 [Compound 183, (E)-5-(4-bromobenzyl)-3-styryl-1,2,4-oxadiazole] | 1.86 | 1.33 | 0.904 | 78.4 | > 50 | > 50 | > 50 |
| Fc1ccc(/C=C/c2nnc(Cc3ccc(Br)c(F)c3)o2)c(Cl)c1 [Compound 184, (E)-2-(4-bromo-3-fluorobenzyl)-5-(2-chloro-4-fluorostyryl)-1,3,4-oxadiazole] | > 50 | > 50 | > 50 | 166.2 | > 50 | > 50 | > 50 |
| Fc1ccc(/C=C/c2nnc(Cc3cccc4ccccc34)o2)c(Cl)c1 [Compound 185, (E)-2-(2-chloro-4-fluorostyryl)-5-(naphthalen-1-ylmethyl)-1,3,4-oxadiazole] | > 50 | > 50 | > 50 | 152.7 | > 50 | > 50 | > 50 |
| Fc1ccccc1/C=C/c1nnc(Cc2cccc(Cl)c2)o1 [Compound 187, 2-(3-chlorobenzyl)-5-(2-fluorostyryl)-1,3,4-oxadiazole] | 1.7 | 1.89 | 1.51 | 117.3 | > 50 | > 50 | > 50 |
| Fc1ccc(/C=C/c2nnc(Cc3cccc(Br)c3)o2)cc1 [Compound 188, 2-(3-bromobenzyl)-5-(4-fluorostyryl)-1,3,4-oxadiazole] | 12.2 | 9.58 | 11.6 | 95.3 | > 50 | > 50 | > 50 |
| Fc1ccc(/C=C/c2nnc(Cc3cccc(Br)c3)o2)cc1F [Compound 191, 2-(3-bromobenzyl)-5-(3,4-difluorostyryl)-1,3,4-oxadiazole] | 13.2 | 8.24 | 4.99 | 112.8 | > 50 | > 50 | > 50 |
| Clc1ccc(/C=C/c2nnc(Cc3cccc(Br)c3)o2)c(Cl)c1 [Compound 192, 2-(3-bromobenzyl)-5-(2,4-dichlorostyryl)-1,3,4-oxadiazole] | 5.49 | 4.66 | 2.6 | 142.4 | > 50 | > 50 | > 50 |
| Fc1ccc(Cl)c(/C=C/c2nnc(Cc3cccc(Br)c3)o2)c1 [Compound 193, 2-(3-bromobenzyl)-5-(2-chloro-5-fluorostyryl)-1,3,4-oxadiazole] | > 50 | > 50 | > 50 | 97.1 | > 50 | > 50 | > 50 |
| Fc1cccc(/C=C/c2nnc(Cc3cccc(Br)c3)o2)c1Cl [Compound 194, 2-(3-bromobenzyl)-5-(2-chloro-3-fluorostyryl)-1,3,4-oxadiazole] | 1.53 | 1.31 | 1.43 | 140.2 | 49.9 | > 50 | > 50 |
| Brc1ccc(Cc2nnc(/C=C/c3cccc4ccccc34)o2)cc1 [Compound 197, 2-(4-bromobenzyl)-5-(2-(naphthalen-1-yl)vinyl)-1,3,4-oxadiazole] | 44.1 | 26.9 | 46.1 | 116 | > 50 | > 50 | > 50 |
| Cc1cc(C(F)(F)F)ccc1/C=C/c1nnc(Cc2cccc(Br)c2)o1 [Compound 198, 2-(3-bromobenzyl)-5-(2-methyl-4-(trifluoromethyl)styryl)-1,3,4-oxadiazole] | 47.9 | 35.7 | > 50 | 116 | > 50 | > 50 | > 50 |
| FC(F)(F)c1ccc(Cl)c(/C=C/c2nnc(Cc3cccc(Br)c3)o2)c1 [Compound 199, 2-(3-bromobenzyl)-5-(2-chloro-5-(trifluoromethyl)styryl)-1,3,4-oxadiazole] | 9.89 | 8.55 | 6.3 | 106.9 | > 50 | > 50 | > 50 |
| Cc1ccc(/C=C/c2nnc(Cc3cccc(Br)c3)o2)c(C)c1 [Compound 200, 2-(3-bromobenzyl)-5-(2,4-dimethylstyryl)-1,3,4-oxadiazole] | 10.2 | 11.7 | 11.9 | 74.2 | > 50 | > 50 | > 50 |
